The structures appear in SMILES notation.

The test system of assay [1] is tubulin (microtubule network) in MCF-7 cells. The experiment in a line: immunofluorescence confocal microscopy of microtubule network. To be noted: 10 μM, 16 h. In kind it is cell-based, human. As for the experimental part:
Confocal microscopy was used to study the effects of drug treatment on MCF-7 cytoskeleton. For immunofluorescence, MCF-7 cells were seeded at 1 × 10^5 cells/mL on eight chamber glass slides (BD Biosciences). […] Following treatment, cells were gently washed in PBS, fixed for 20 min with 4% paraformaldehyde in PBS, and permeabilised in 0.5% Triton X-100. Following washes in PBS containing 0.1% Tween (PBST), cells were blocked in 5% bovine serum albumin diluted in PBST. […] Following washes in PBST, the cells were mounted in Ultra Cruz Mounting Media (Santa Cruz Biotechnology, Santa Cruz, CA) containing 4,6-diamino-2-phenolindol dihydrochloride (DAPI). Images were captured by Leica SP8 confocal microscopy with Leica application suite X software. All images in each experiment were collected on the same day using identical parameters. Experiments were performed on three independent occasions.

Assay [2] concerns HL-60 leukaemia cells. The experiment in a line: cell viability assay. In kind it is cell-based. To be noted: Homo sapiens, read-out: Antiproliferative Activity HL-60 Cells IC50. As for the experimental part: The human breast carcinoma cell line MCF-7 was purchased from the European Collection of Animal Cell Cultures (ECACC) and cultured in Eagles minimum essential medium with 10% foetal bovine serum, 2 mM L-glutamine, and 100 μg/mL penicillin/streptomycin. The medium was supplemented with 1% non-essential amino acids. The human breast carcinoma cell line MDA-MB-231 was purchased from the ECACC. MDA-MB-231 cells were maintained in Dulbecco’s modified Eagle’s medium (DMEM) supplemented with 10% (v/v) foetal bovine serum, 2 mM L-glutamine, and 100 μg/mL penicillin/streptomycin (complete medium). HL-60 cells were derived from a patient with acute myeloid leukaemia and were obtained from the ECACC (Salisbury, UK). Cells were cultured in RPMI-1640 Glutamax medium supplemented with 10% FCS media and 100 μg/mL penicillin/streptomycin. MCF-10A cells were obtained as a kind gift from Dr Susan McDonnell, School of Chemical and Bioprocess Engineering, University College Dublin and were cultured in Dulbecco’s Modified Eagle Medium: Nutrient Mixture F-12 (DMEM/F12; Gibco) supplemented with 5% horse serum (Invitrogen), 20 ng mL^−1 epidermal growth factor (Merck Millipore), 0.5 μg mL^−1 hydrocortisone (Sigma,-Aldrich, Arklow, Co. Wicklow, Ireland), 100 ng mL^−1 cholera toxin (Sigma, Aldrich, Arklow, Co. Wicklow, Ireland), 10 μg mL^−1 insulin (Sigma, Aldrich, Arklow, Co. Wicklow, Ireland), and penicillin/streptomycin 5000 U mL^−1 (1%)(Gibco, Biosciences, 3 Charlemont Terrace, Crofton Road, Dun Laoghaire, Co Dublin, A96 K7H7, Ireland). […]
Cells were seeded at a density of 2.5 × 10^4 cells/well (MCF-7, MDA-MB-231, MCF-10A cells) and 1 × 10^4 cells/well (HL-60) in 96-well plates (200 μL per well). […] Cell proliferation for MCF-7, MDA-MB-231, and MCF-10A cells was analysed using the alamarBlue assay (Invitrogen Corp.) according to the manufacturer’s instructions. […] Fluorescence was read using a 96-well fluorimeter with excitation at 530 nm and emission at 590 nm. Results were expressed as percentage viability relative to vehicle control (100%).

Assay [3] deals with purified bovine brain tubulin. The experiment in a line: tubulin polymerisation assay. Type of assay: biochemical. To be noted: 10 μM. As for the experimental part: The assembly of purified bovine tubulin was monitored using a kit, BK006, purchased from Cytoskeleton Inc. (Denver, CO, USA). […] Light is scattered proportionally to the concentration of polymerised microtubules in the assay. Therefore, tubulin assembly was monitored turbidimetrically at 340 nm in a Spectramax 340 PC spectrophotometer (Molecular Devices, Sunnyvale, CA, USA). The absorbance was measured at 30 s intervals for 60 min.

In assay [4] the test system is Bcl-2. The experiment in a line: Western blot in MCF-7 cells. In kind it is cell-based, human. Conditions: MCF-7, 1 μM. On the procedure:
(§1) MCF-7 cells were seeded at a density of 1 × 10^5 cells/flask (10 mL) in T25 flasks. After 48 h, whole cell lysates were prepared from untreated cells or cells treated with vehicle control (EtOH, 0.1% v/v) or selected compound 21l or 24 (1 μM). MCF-7 cells were harvested in Radioimmunoprecipitation assay buffer (RIPA) buffer supplemented with protease inhibitors (Roche Diagnostics), phosphatase inhibitor cocktail 2 (Sigma-Aldrich), and phosphatase inhibitor cocktail 3 (Sigma-Aldrich). Equal quantities of protein (as determined by a bicinchoninic acid assay (BCA assay) were resolved by SDS-PAGE (12%) followed by transfer to polyvinylidene fluoride PVDF membranes. Membranes were blocked in 5% bovine serum albumin/Tris-buffered saline with 0.1% Tween®20 Detergent (TBST) for 1 h. Membranes were incubated in the relevant primary antibodies at 4 °C overnight, washed with TBST, and incubated in horseradish peroxidase-conjugated secondary antibody for 1 h at rt and washed again. Western blot analysis was performed as described above using antibodies directed against Mcl-1 (1:1000) (Millipore), Bcl-2 [1:500] (Millipore), and PARP followed by incubation with a horseradish peroxidase-conjugated anti-mouse antibody (1:2000) (Promega, Madison, WI, USA). All blots were probed with anti-glyceraldehyde 3-phosphate dehydrogenase (GAPDH) antibody (1:5000) (Millipore) to confirm equal loading. Proteins were detected using enhanced chemiluminescent Western blot detection (Clarity Western ECL substrate) (Bio Rad) on the ChemiDoc MP System (Bio Rad). Experiments were performed on three independent occasions.

The subject of assay [5] is Mcl-1. The experiment in a line: Western blot in MCF-7 cells. In kind it is cell-based, human. Conditions: MCF-7, 1 μM. As for the experimental part:
as §1

Assay [6] relates to PARP. The experiment in a line: Western blot in MCF-7 cells. In kind it is cell-based, human. Conditions: MCF-7, 1 μM, vs vehicle. On the procedure:
as §1

As for `COc1ccc(C(c2cc(OC)c(OC)c(OC)c2)n2cncn2)cc1O` (stereo not shown) [19e, 5-((1H-1,2,4-Triazol-1-yl)(3,4,5-Trimethoxyphenyl)methyl)-2-Methoxyphenol], the “effect on microtubule network of MCF-7 cells” value in assay [1] is “disorganised microtubule networks”.
For `COc1ccc(C(c2cc(OC)c(OC)c(OC)c2)n2ccnc2)cc1O` (stereo not shown) [21l, 5-((1H-Imidazol-1-yl)(3,4,5-Trimethoxyphenyl)Methyl)-2-Methoxyphenol], the IC50 in assay [2] stood at 0.156 ± 0.052 µM. In assay [3], the “effect on tubulin polymerisation and assembly” value is listed as “significant inhibition of tubulin polymerisation”; the “fold reduction of the polymer mass compared to the vehicle” value was 1.34 fold. In assay [3] (60 min), the “Vmax value of tubulin polymerisation” value was determined as 2.84 ± 0.10 mOD/min. The “effect on microtubule network of MCF-7 cells” value in assay [1] is reported as “disorganised microtubule networks”. For the same molecule, the “expression level of Bcl-2” value in assay [4] is listed as “no change”. In addition, in assay [5], the “expression level of Mcl-1” value was “no change”. In assay [6], the “expression of full-length PARP (116 kDa)” value is listed as “significant reduction”.
For `COc1ccc(C(c2cc(OC)c(OC)c(OC)c2)n2nccn2)cc1O` (stereo not shown) [compound 24], in assay [2], the IC50 came out at 0.173 ± 0.055 µM. The “expression level of Bcl-2” value in assay [4] is “no change”. Further, the “expression level of Mcl-1” value in assay [5] is listed as “no change”. In addition, the “expression of full-length PARP (116 kDa)” value in assay [6] is “significant reduction”.

The record behind these values is article PMC7926793, “Synthesis and Biological Evaluation of 1-(Diarylmethyl)-1H-1,2,4-triazoles and 1-(Diarylmethyl)-1H-imidazoles as a Novel Class of Anti-Mitotic Agent for Activity in Breast Cancer” (Pharmaceuticals, 2021).
